Results published in patent US10329294B2, “Pyrazolopyrimidine inhibitors of IRAK4 activity” (MERCK SHARP & DOHME CORP., priority 2015, dated 2019).
pIC50: −log10 of the molar value. Where a name gives a salt, the structure may show the parent alone.

Each molecule was assayed against IRAK4 (Homo sapiens (Human), UniProt Q9NWZ3) (assay: IRAK4 Kinase Assay). Conditions: IMAP fluorescence polarization, 0.5 nM GST tagged IRAK4, 100 μM ATP, 30 minutes at 25° C.; read-out: IRAK4 IC50.
Format: biochemical
Description: The kinase activity of IRAK4 is determined by its ability to catalyze the phosphorylation of a fluorescent polypeptide substrate. The extent of phosphorylation is measured using the IMAP technology (Molecular Devices) where the phosphorylated fluorescent substrate binds to the large M(III)-based nanoparticles which reduces the rotational speed of the substrate and thus increases its fluorescent polarization (FP).
20 μL reaction mixture contains 10 mM TriHCl, pH 7.2, 0.5 nM GST tagged IRAK4 (SignalChem), 100 nM fluorescent peptide substrate (RP7030, Molecular Devices), 100 μM ATP, 1 mM DDT, 1 mM MgCl2, and 0.01% Tween 20. The reaction is initiated by the addition of ATP. After incubation for 30 minutes at 25° C., 60 μL of Progressive IMAP Reagent (Molecular Devices) is added to stop the reaction. Change in RP7030's FP is determined by a FP reader (Analyst HT, LJL BioSystems).

Chain of IRAK4 (Q9NWZ3 whole entry): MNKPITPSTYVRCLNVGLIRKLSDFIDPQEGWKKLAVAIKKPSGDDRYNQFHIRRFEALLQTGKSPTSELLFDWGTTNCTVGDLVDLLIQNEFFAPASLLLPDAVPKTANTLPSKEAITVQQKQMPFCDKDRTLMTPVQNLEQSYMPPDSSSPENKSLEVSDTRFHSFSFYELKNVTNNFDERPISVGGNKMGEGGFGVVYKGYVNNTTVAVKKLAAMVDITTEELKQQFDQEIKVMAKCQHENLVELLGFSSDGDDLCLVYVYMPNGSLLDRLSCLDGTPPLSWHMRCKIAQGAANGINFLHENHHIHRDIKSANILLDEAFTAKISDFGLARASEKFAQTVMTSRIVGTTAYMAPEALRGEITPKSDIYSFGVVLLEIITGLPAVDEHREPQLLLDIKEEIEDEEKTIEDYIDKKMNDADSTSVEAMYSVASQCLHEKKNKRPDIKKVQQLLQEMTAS

pIC50	SMILES
8.70	N[C@H]1CCCC[C@H]1Nc1ccn2ncc(C(=O)Nc3ccsc3Br)c2n1 [Example 129, 5-{[(1R,2S)-2-aminocyclohexyl]amino}-N-(2-bromothiophen-3-yl)pyrazolo[1,5-a]pyrimidine-3-carboxamide trifluoroacetate]
6.01	Cn1cc(NC(=O)c2cnn3ccc(NCCN4CCOCC4)nc23)c(C(F)(F)F)n1 [Example 290, N-[1-methyl-3-(trifluoromethyl)-1H-pyrazol-4-yl]-5-[(2-morpholin-4-ylethyl)amino]pyrazolo[1,5-a]pyrimidine-3-carboxamide trifluoroacetate]
7.12	COCCc1nn(C)cc1NC(=O)c1cnn2ccc(N[C@@H]3CCCC[C@@H]3N)nc12 [Example 283, 5-{[(1R,2S)-2-aminocyclohexyl]amino}-N-[3-(2-methoxyethyl)-1-methyl-1H-pyrazol-4-yl]pyrazolo[1,5-a]pyrimidine-3-carboxamide trifluoroacetate]
9.00	Cn1cc(NC(=O)c2cnn3ccc(N4C[C@@H](N)C[C@@H](F)C4)nc23)c(C(F)F)n1 [Example 249, 5-[(3S,5R)-3-amino-5-fluoropiperidin-1-yl]-N-[3-(difluoromethyl)-1-methyl-1H-pyrazol-4-yl]pyrazolo[1,5-a]pyrimidine-3-carboxamide trifluoroacetate]
7.85	Cn1cc(NC(=O)c2cnn3ccc(NC4CCCNCC4)nc23)c(C(F)(F)F)n1 (centres unmarked) [Example 17, 5-(azepan-4-ylamino)-N-[1-methyl-3-(trifluoromethyl)-1H-pyrazol-4-yl]pyrazolo[1,5-a]pyrimidine-3-carboxamide hydrochloride]
7.13	O=C(Nc1cn(C(F)F)nc1C(F)(F)F)c1cnn2ccc(N3CC4CCC3CN4)nc12 (centres unmarked) [Example 67, 5-(2,5-diazabicyclo[2.2.2]oct-2-yl)-N-[1-(difluoromethyl)-3-(trifluoromethyl)-1H-pyrazol-4-yl]pyrazolo[1,5-a]pyrimidine-3-carboxamide trifluoroacetate]
6.42	O=C(Nc1cscc1Cl)c1cnn2ccc(N3C[C@H]4CC[C@@H]3CN4)nc12 (single isomer, unassigned) [Example 171, N-(4-chlorothiophen-3-yl)-5-[(1S,4S)- or (1R,4R)-2,5-diazabicyclo[2.2.2]oct-2-yl]pyrazolo[1,5-a]pyrimidine-3-carboxamide trifluoroacetate]
7.32	CC(C)(C)n1cc(NC(=O)c2cnn3ccc(N4CCNCC4)nc23)c(C(F)(F)F)n1 [Example 46, N-[1-tert-butyl-3-(trifluoromethyl)-1H-pyrazol-4-yl]-5-piperazin-1-ylpyrazolo[1,5-a]pyrimidine-3-carboxamide trifluoroacetate]
7.42	O=C(Nc1cn(CC(F)F)nc1C(F)(F)F)c1cnn2ccc(N[C@@H]3CCCC[C@@H]3O)nc12 [Example 63, N-[1-(2,2-difluoroethyl)-3-(trifluoromethyl)-1H-pyrazol-4-yl]-5-{[(1R,2S)-2-hydroxycyclohexyl]amino} pyrazolo[1,5-a]pyrimidine-3-carboxamide trifluoroacetate]
9.10	N[C@H]1CCCC[C@H]1Nc1ccn2ncc(C(=O)Nc3c[nH]nc3C(F)(F)F)c2n1 [Example 301, 5-{[(1R,2S)-2-aminocyclohexyl]amino}-N-[3-(trifluoromethyl)-1H-pyrazol-4-yl]pyrazolo[1,5-a]pyrimidine-3-carboxamide trifluoroacetate]
7.31	Cn1cc(NC(=O)c2cnn3ccc(N4CC5CCC4CN5)nc23)c(C#N)n1 (centres unmarked) [Example 136, N-(3-cyano-1-methyl-1H-pyrazol-4-yl)-5-(2,5-diazabicyclo[2.2.2]oct-2-yl)pyrazolo[1,5-a]pyrimidine-3-carboxamide trifluoroacetate]
6.42	Cn1cc(NC(=O)c2cnn3ccc(N4CCNCC(F)(F)C4)nc23)c(C(F)(F)F)n1 [Example 36, 5-(6,6-difluoro-1,4-diazepan-1-yl)-N-[1-methyl-3-(trifluoromethyl)-1H-pyrazol-4-yl]pyrazolo[1,5-a]pyrimidine-3-carboxamide trifluoroacetate]
7.14	Cn1cc(NC(=O)c2cnn3ccc(N4CCCNCC4)nc23)c(Br)n1 [Example 137, N-(3-bromo-1-methyl-1H-pyrazol-4-yl)-5-(1,4-diazepan-1-yl)pyrazolo[1,5-a]pyrimidine-3-carboxamide trifluoroacetate]
9.00	N[C@H]1CCCC[C@H]1Nc1ccn2ncc(C(=O)Nc3cscc3Cl)c2n1 [Example 168, 5-{[(1R,2S)-2-aminocyclohexyl]amino}-N-(4-chlorothiophen-3-yl)pyrazolo[1,5-a]pyrimidine-3-carboxamide trifluoroacetate]

SMILES	pIC50
Cn1cc(NC(=O)c2cnn3ccc(NC4CNCCC4F)nc23)c(C(F)F)n1 (single isomer, unassigned) [Example 241, N-[3-(difluoromethyl)-1-methyl-1H-pyrazol-4-yl]-5-[(3R or S, 4R or S-4-fluoropiperidin-3-yl)amino]pyrazolo[1,5-a]pyrimidine-3-carboxamide]	8.52
Cn1cc(NC(=O)c2cnn3ccc(N[C@H]4CNC[C@H](F)C4)nc23)c(C(F)(F)F)n1 [Example 260, 5-{[(3R,5R)-5-fluoropiperidin-3-yl]amino}-N-[1-methyl-3-(trifluoromethyl)-1H-pyrazol-4-yl]pyrazolo[1,5-a]pyrimidine-3-carboxamide]	8.40
Cn1cc(NC(=O)c2cnn3ccc(N[C@H]4CC(F)(F)CC[C@H]4N)nc23)c(C(F)F)n1 (single isomer, unassigned) [Example 210, 5-{[(1S,2R)- or (1R,2S)-2-amino-5,5-difluorocyclohexyl]amino}-N-[3-(difluoromethyl)-1-methyl-1H-pyrazol-4-yl]pyrazolo[1,5-a]pyrimidine-3-carboxamide]	9.00
CN1CCN(c2ccn3ncc(C(=O)Nc4cn(C)nc4C(F)(F)F)c3n2)CC1 [Example 34, 5-(4-methylpiperazin-1-yl)-N-[1-methyl-3-(trifluoromethyl)-1H-pyrazol-4-yl]pyrazolo[1,5-a]pyrimidine-3-carboxamide]	6.57
Cn1cc(NC(=O)c2cnn3ccc(N4CC5CCC(C4)N5)nc23)c(C(F)(F)F)n1 [Example 81, 5-(3,8-diazabicyclo[3.2.1]oct-3-yl)-N-[1-methyl-3-(trifluoromethyl)-1H-pyrazol-4-yl]pyrazolo[1,5-a]pyrimidine-3-carboxamide trifluoroacetate]	8.05
Cn1cc(NC(=O)c2cnn3ccc(NC4CNCCC4F)nc23)c(C(F)F)n1 (single isomer, unassigned) [Example 237, N-[3-(difluoromethyl)-1-methyl-1H-pyrazol-4-yl]-5-[(3R or S, 4R or S-4-fluoropiperidin-3-yl)amino]pyrazolo[1,5-a]pyrimidine-3-carboxamide]	9.22
Cn1cc(NC(=O)c2cnn3ccc(N4CC5CNCC4C5)nc23)c(C(F)F)n1 (centres unmarked) [Example 238, 5-[3,6-diazabicyclo[3.2.1]oct-6-yl]-N-[3-(difluoromethyl)-1-methyl-1H-pyrazol-4-yl]pyrazolo[1,5-a]pyrimidine-3-carboxamide]	8.40
Cn1cc(NC(=O)c2cnn3ccc(NC4CCCCNC4)nc23)c(C(F)F)n1 (centres unmarked) [Example 99, 5-(azepan-3-ylamino)-N-[3-(difluoromethyl)-1-methyl-1H-pyrazol-4-yl]pyrazolo[1,5-a]pyrimidine-3-carboxamide]	8.52
Cn1cc(NC(=O)c2cnn3ccc(N4C5CCC4CNC5)nc23)c(C(F)F)n1 [Example 229, 5-(3,8-diazabicyclo[3.2.1]oct-8-yl)-N-[3-(difluoromethyl)-1-methyl-1H-pyrazol-4-yl]pyrazolo[1,5-a]pyrimidine-3-carboxamide trifluoroacetate]	9.30
Cn1cc(NC(=O)c2cnn3ccc(N4C[C@H](O)C[C@@H](O)C4)nc23)c(C(F)F)n1 [Example 24, N-[3-(difluoromethyl)-1-methyl-1H-pyrazol-4-yl]-5-[(3R,5R)-3,5-dihydroxypiperidin-1-yl]pyrazolo[1,5-a]pyrimidine-3-carboxamide]	8.40
Cn1cc(NC(=O)c2cnn3ccc(N4C[C@H]5CNC[C@@H]4C5)nc23)c(C(F)(F)F)n1 (single isomer, unassigned) [Example 84, 5-[(1S,5R)- or (1R,5S)-3,6-diazabicyclo[3.2.1]oct-6-yl]-N-[1-methyl-3-(trifluoromethyl)-1H-pyrazol-4-yl]pyrazolo[1,5-a]pyrimidine-3-carboxamide]	6.80
N#Cc1cscc1NC(=O)c1cnn2ccc(N[C@@H]3CCCC(F)(F)[C@@H]3N)nc12 [Example 143, 5-{[(1R,2R)-2-amino-3,3-difluorocyclohexyl]amino}-N-(4-cyanothiophen-3-yl)pyrazolo[1,5-a]pyrimidine-3-carboxamide]	6.72

Same assay, conditions: IRAK4 IC50 (nM), IMAP fluorescence polarization, 0.5 nM GST tagged IRAK4, 100 μM ATP, 30 minutes at 25° C.

SMILES	IC50 [nM]
CC(C)n1cc(NC(=O)c2cnn3ccc(N[C@@H]4CCCC[C@@H]4O)nc23)c(C(F)(F)F)n1 [Example 52, 5-{[(1R,2S)-2-hydroxycyclohexyl]amino}-N-[1-(1-methylethyl)-3-(trifluoromethyl)-1H-pyrazol-4-yl]pyrazolo[1,5-a]pyrimidine-3-carboxamide]	64
Cn1cc(NC(=O)c2cnn3ccc(N4CC5CNCC4COC5)nc23)c(C(F)(F)F)n1 (centres unmarked) [Example 212, 5-(3-Oxa-7,9-diazabicyclo[3.3.2]decan-9-yl)-N-(1-methyl-3-(trifluoromethyl)-1H-pyrazol-4-yl)pyrazolo[1,5-a]pyrimidine-3-carboxamide]	9
Cn1cc(NC(=O)c2cnn3ccc(N[C@H]4CC(F)(F)CC[C@H]4N)nc23)c(C(F)F)n1 (single isomer, unassigned) [Example 208, 5-{[(1S,2R)- or (1R,2S)-2-amino-5,5-difluorocyclohexyl]amino}-N-[3-(difluoromethyl)-1-methyl-1H-pyrazol-4-yl]pyrazolo[1,5-a]pyrimidine-3-carboxamide]	38
